pIC50: −log10 of the molar value.
System: not listed separately
Assay: Tissue distribution of SDC-TRAPs in tumor-bearing mice: plasma, tumor, heart (Examples 14-15)
Details: mouse, in vivo
Method: Tissue Distribution Extraction Procedure for SDC-TRAP Tumor Samples
A 150 ng/mL solution of SDC-TRAP-0002 in methanol was prepared using an internal spiking solution (500 μg/mL SDC-TRAP-0002 in DMSO). Using the 10 mM stock solutions of the SDC-TRAP molecule and its Hsp90i binding moiety and effector moiety in DMSO, spiking solutions were prepared at 0.025, 0.05, 0.1, 0.5, 1, 5, 10, 50, 100, 250, and 500 μM in DMSO. 5 μL of each spiking solution was added to a 96-deep well plate.
Quality control standards were prepared from 5 μL of 0.1, 1, and 10 μM calibration standard spiking solution added in triplicate into 96-deep well plate and adding 50 μL of matrix (plasma or homogenized tumor).
To prepare test samples, test plasma was diluted as needed using blank plasma. Tumor samples were pulverized in liquid nitrogen, weighed, and homogenized in PBS at 5× volume to sample weight. 50 μL of unknown plasma or homogenized tumor sample was mixed with 5 μL of DMSO. The samples were extracted by precipitating calibration standards, QC standards, and unknown samples with 200 μL of internal standard solution. The samples were mixed by vortex at room temperature for approximately 1.5 minutes, then centrifuge at 2-8° C. 150 μL of supernatant was collected and 25 μL of water added. Samples were mixed and analyzed by LC-MS/MS.
Samples of plasma, heart and tumor were excised from a euthanized mouse, homogenized in PBS at 5 times tissue weight and diluted in 5 μL DMSO/50 μL sample. Prior to analysis, 55 μL samples and calibration standards were precipitated in 200 μL methanol in 96-well plates. Samples were mixed on a vortex mixer for 1.5 minutes at 1500 rpm at room temperature, then centrifuged at 4400 rpm for 10 minutes at 8° C. 150 μL of each supernatant was transferred to a well of a new 96-well plate, and 25 μL of water was added and mixed with the sample. […] For the analysis of samples from female SCID mice, a gradient of solvent A (water/0.1% formic acid) and B (acetonitrile/0.1% formic acid) was used as in Table A below.

| SMILES | Kp at 6 h | Kp at 12 h | Kp at […] | concentration at 6 h [nM] | concentration at 12 h [nM] | concentration at 24 h [nM] | Kp at 24 h |
| --- | --- | --- | --- | --- | --- | --- | --- |
| CCc1c2c(nc3ccc(OC(=O)N4CCN(c5ccc(-n6c(O)nnc6-c6cc(C(C)C)c(O)cc6O)cc5)CC4)cc13)-c1cc3c(c(=O)n1C2)COC(=O)C3(O)CC (stereo not drawn) [SDC-TRAP-0045, 4,11-diethyl-4-hydroxy-3,14-dioxo-3,4,12,14-tetrahydro-1H-pyrano[3′,4′:6,7]indolizino[1,2-b]quinolin-9-yl 4-(4-(3-(2,4-dihydroxy-5-isopropylphenyl)-5-hydroxy-4H-1,2,4-triazol-4-yl)phenyl)piperazine-1-carboxylate] | 1.35 | 8.02 | 0.00624 | 1880 | 141 | 11.3 |  |
| CCc1c2c(nc3ccc(OC(=O)N4CCN(Cc5ccc(-n6c(O)nnc6-c6cc(C(C)C)c(O)cc6O)cc5)CC4)cc13)-c1cc3c(c(=O)n1C2)COC(=O)C3(O)CC (stereo not drawn) [SDC-TRAP-0046, 4,11-diethyl-4-hydroxy-3,14-dioxo-3,4,12,14-tetrahydro-1H-pyrano[3′,4′:6,7]indolizino[1,2-b]quinolin-9-yl 4-(4-(3-(2,4-dihydroxy-5-isopropylphenyl)-5-hydroxy-4H-1,2,4-triazol-4-yl)benzyl)piperazine-1-carboxylate] | 0.844 | 2.2 | 0.0193 | 5880 | 2370 | 54.2 | 40.3 |

System: HER2
Assay: HER2 degradation assay with BT-474 cell line (Example 12, FACS)
Type: cell-based
Details: Homo sapiens, BT-474; SDC-TRAPs of the 52nd table

| SMILES | pIC50 |
| --- | --- |
| CCNC(=O)c1nnc(-c2cc(C(C)C)c(O)cc2O)n1-c1ccc(Oc2ccc(C(=O)NC(Cc3ccccc3)C(=O)Nc3cc(-c4cnoc4-c4cc(OC)c(OC)c(OC)c4)ccc3OC)cc2)cc1 (stereo not drawn) [SDC-TRAP-0158, 5-(2,4-dihydroxy-5-isopropylphenyl)-N-ethyl-4-(4-(4-((1-((2-methoxy-5-(5-(3,4,5-trimethoxyphenyl)isoxazol-4-yl)phenyl)amino)-1-oxo-3-phenylpropan-2-yl)carbamoyl)phenoxy)phenyl)-4H-1,2,4-triazole-3-carboxamide] | < 5.30 |

Same assay, conditions: Homo sapiens; BT-474 cells

| SMILES | pIC50 |
| --- | --- |
| CC(C)c1cc(-c2nnc(O)n2-c2ccc(CN3CCN(C(=O)c4cnc(C(=O)Nc5cccc6c5CN(C5CCC(=O)NC5=O)C6=O)cn4)CC3)c(F)c2)c(O)cc1O (stereo not drawn) [SDC-TRAP-0160, 5-(4-(4-(3-(2,4-dihydroxy-5-isopropylphenyl)-5-hydroxy-4H-1,2,4-triazol-4-yl)-2-fluorobenzyl)piperazine-1-carbonyl)-N-(2-(2,6-dioxopiperidin-3-yl)-1-oxoisoindolin-4-yl)pyrazine-2-carboxamide] | 6.62 |
| CCNC(=O)c1nnc(-c2cc(C(C)C)c(O)cc2O)n1-c1ccc(CN2CCC(C(=O)N[C@H](C(=O)Nc3cccc4c3CN(C3CCC(=O)NC3=O)C4=O)C(C)C)CC2)cc1 (stereo partly drawn) [SDC-TRAP-0163, 1-(4-(3-(2,4-dihydroxy-5-isopropylphenyl)-5-(ethylcarbamoyl)-4H-1,2,4-triazol-4-yl)benzyl)-N-((2S)-1-((2-(2,6-dioxopiperidin-3-yl)-1-oxoisoindolin-4-yl)amino)-3-methyl-1-oxobutan-2-yl)piperidine-4-carboxamide] | 6.05 |
| CCNC(=O)c1nnc(-c2cc(C(C)C)c(O)cc2O)n1-c1ccc(CN2CCC(C(=O)N3CCC[C@H]3C(=O)Nc3cccc4c3CN(C3CCC(=O)NC3=O)C4=O)CC2)cc1 (stereo partly drawn) [SDC-TRAP-0164, 5-(2,4-dihydroxy-5-isopropylphenyl)-4-(4-((4-((2S)-2-((2-(2,6-dioxopiperidin-3-yl)-1-oxoisoindolin-4-yl)carbamoyl)pyrrolidine-1-carbonyl)piperidin-1-yl)methyl)phenyl)-N-ethyl-4H-1,2,4-triazole-3-carboxamide] | 6.31 |
| CCNC(=O)c1nnc(-c2cc(C(C)C)c(O)cc2O)n1-c1ccc(C(=O)N[C@@H](C)C(=O)Nc2cccc3c2CN(C2CCC(=O)NC2=O)C3=O)cc1 (stereo partly drawn) [SDC-TRAP-0166, 5-(2,4-dihydroxy-5-isopropylphenyl)-4-(4-(((2S)-1-((2-(2,6-dioxopiperidin-3-yl)-1-oxoisoindolin-4-yl)amino)-1-oxopropan-2-yl)carbamoyl)phenyl)-N-ethyl-4H-1,2,4-triazole-3-carboxamide] | < 5.30 |
| CC(C)c1cc(-c2nnc(O)n2-c2ccc(CN3CCN(c4cnc(C(=O)Nc5cccc6c5CN(C5CCC(=O)NC5=O)C6=O)cn4)CC3)c(F)c2)c(O)cc1O (stereo not drawn) [SDC-TRAP-0170, 5-(4-(4-(3-(2,4-dihydroxy-5-isopropylphenyl)-5-hydroxy-4H-1,2,4-triazol-4-yl)-2-fluorobenzyl)piperazin-1-yl)-N-(2-(2,6-dioxopiperidin-3-yl)-1-oxoisoindolin-4-yl)pyrazine-2-carboxamide] | 6.53 |
| CC(C)c1cc(-c2nnc(O)n2-c2ccc(CN3CCN(C(=O)c4ccc(COC(=O)Nc5cccc6c5CN(C5CCC(=O)NC5=O)C6=O)cc4F)CC3)c(F)c2)c(O)cc1O (stereo not drawn) [SDC-TRAP-0174, 4-(4-(4-(3-(2,4-dihydroxy-5-isopropylphenyl)-5-hydroxy-4H-1,2,4-triazol-4-yl)-2-fluorobenzyl)piperazine-1-carbonyl)-3-fluorobenzyl (2-(2,6-dioxopiperidin-3-yl)-1-oxoisoindolin-4-yl)carbamate] | 6.16 |
| CC(C)c1cc(-c2nnc(O)n2-c2ccc(N3CCN(C(=O)c4ccc(COC(=O)Nc5cccc6c5CN(C5CCC(=O)NC5=O)C6=O)cc4)CC3)nc2)c(O)cc1O (stereo not drawn) [SDC-TRAP-0175, 4-(4-(5-(3-(2,4-dihydroxy-5-isopropylphenyl)-5-hydroxy-4H-1,2,4-triazol-4-yl)pyridin-2-yl)piperazine-1-carbonyl)benzyl (2-(2,6-dioxopiperidin-3-yl)-1-oxoisoindolin-4-yl)carbamate] | 5.58 |
| CCNC(=O)c1nnc(-c2cc(C(C)C)c(O)cc2O)n1-c1ccc(C(=O)N2CCN(C(=O)c3ccc(COC(=O)Nc4cccc5c4CN(C4CCC(=O)NC4=O)C5=O)cc3)CC2)cc1 (stereo not drawn) [SDC-TRAP-0177, 4-(4-(4-(3-(2,4-dihydroxy-5-isopropylphenyl)-5-(ethylcarbamoyl)-4H-1,2,4-triazol-4-yl)benzoyl)piperazine-1-carbonyl)benzyl (2-(2,6-dioxopiperidin-3-yl)-1-oxoisoindolin-4-yl)carbamate] | 5.36 |
| CCNC(=O)c1nnc(-c2cc(C(C)C)c(O)cc2O)n1-c1ccc(C(=O)N[C@H](C(=O)Nc2cccc3c2CN(C2CCC(=O)NC2=O)C3=O)C(C)C)cc1 (stereo partly drawn) [SDC-TRAP-0188, 5-(2,4-dihydroxy-5-isopropylphenyl)-4-(4-(((2S)-1-((2-(2,6-dioxopiperidin-3-yl)-1-oxoisoindolin-4-yl)amino)-3-methyl-1-oxobutan-2-yl)carbamoyl)phenyl)-N-ethyl-4H-1,2,4-triazole-3-carboxamide] | 5.40 |
| CCNC(=O)c1nnc(-c2cc(C(C)C)c(O)cc2O)n1-c1ccc(C(=O)N[C@@H](CC(C)C)C(=O)Nc2cccc3c2CN(C2CCC(=O)NC2=O)C3=O)cc1 (stereo partly drawn) [SDC-TRAP-0189, 5-(2,4-dihydroxy-5-isopropylphenyl)-4-(4-(((2S)-1-((2-(2,6-dioxopiperidin-3-yl)-1-oxoisoindolin-4-yl)amino)-4-methyl-1-oxopentan-2-yl)carbamoyl)phenyl)-N-ethyl-4H-1,2,4-triazole-3-carboxamide] | 5.96 |
| CCNC(=O)c1nnc(-c2cc(C(C)C)c(O)cc2O)n1-c1ccc(C(=O)N2CCC[C@H]2C(=O)Nc2cccc3c2CN(C2CCC(=O)NC2=O)C3=O)cc1 (stereo partly drawn) [SDC-TRAP-0190, 5-(2,4-dihydroxy-5-isopropylphenyl)-4-(4-((2S)-2-((2-(2,6-dioxopiperidin-3-yl)-1-oxoisoindolin-4-yl)carbamoyl)pyrrolidine-1-carbonyl)phenyl)-N-ethyl-4H-1,2,4-triazole-3-carboxamide] | < 5.30 |
| CCNC(=O)c1nnc(-c2cc(C(C)C)c(O)cc2O)n1-c1ccc(Oc2ccc(C(=O)N[C@@H](CC(C)C)C(=O)Nc3cccc4c3CN(C3CCC(=O)NC3=O)C4=O)cc2)cc1 (stereo partly drawn) [SDC-TRAP-0191, 5-(2,4-dihydroxy-5-isopropylphenyl)-4-(4-(4-(((2S)-1-((2-(2,6-dioxopiperidin-3-yl)-1-oxoisoindolin-4-yl)amino)-4-methyl-1-oxopentan-2-yl)carbamoyl)phenoxy)phenyl)-N-ethyl-4H-1,2,4-triazole-3-carboxamide] | 5.93 |
| CCNC(=O)c1nnc(-c2cc(C(C)C)c(O)cc2O)n1-c1ccc(Oc2ccc(C(=O)N3CCC[C@H]3C(=O)Nc3cccc4c3CN(C3CCC(=O)NC3=O)C4=O)cc2)cc1 (stereo partly drawn) [SDC-TRAP-0192, 5-(2,4-dihydroxy-5-isopropylphenyl)-4-(4-(4-((2S)-2-((2-(2,6-dioxopiperidin-3-yl)-1-oxoisoindolin-4-yl)carbamoyl)pyrrolidine-1-carbonyl)phenoxy)phenyl)-N-ethyl-4H-1,2,4-triazole-3-carboxamide] | < 5.30 |
| CCNC(=O)c1nnc(-c2cc(C(C)C)c(O)cc2O)n1-c1ccc(CN2CCC(C(=O)N[C@@H](CC(C)C)C(=O)Nc3cccc4c3CN(C3CCC(=O)NC3=O)C4=O)CC2)cc1 (stereo partly drawn) [SDC-TRAP-0193, 1-(4-(3-(2,4-dihydroxy-5-isopropylphenyl)-5-(ethylcarbamoyl)-4H-1,2,4-triazol-4-yl)benzyl)-N-((2S)-1-((2-(2,6-dioxopiperidin-3-yl)-1-oxoisoindolin-4-yl)amino)-4-methyl-1-oxopentan-2-yl)piperidine-4-carboxamide] | 6.58 |
| CC(C)c1cc(-c2nnc(O)n2-c2ccc(CN3CCN(C(=O)Cc4ccc(COC(=O)Nc5cccc6c5CN(C5CCC(=O)NC5=O)C6=O)cc4)CC3)c(F)c2)c(O)cc1O (stereo not drawn) [SDC-TRAP-0194, 4-(2-(4-(4-(3-(2,4-dihydroxy-5-isopropylphenyl)-5-hydroxy-4H-1,2,4-triazol-4-yl)-2-fluorobenzyl)piperazin-1-yl)-2-oxoethyl)benzyl (2-(2,6-dioxopiperidin-3-yl)-1-oxoisoindolin-4-yl)carbamate] | 5.67 |
| CCNC(=O)c1nnc(-c2cc(C(C)C)c(O)cc2O)n1-c1ccc(CN2CCC(C(=O)N(C)CCCOC(=O)Nc3cccc4c3CN(C3CCC(=O)NC3=O)C4=O)CC2)cc1 (stereo not drawn) [SDC-TRAP-0231, 3-(1-(4-(3-(2,4-dihydroxy-5-isopropylphenyl)-5-(ethylcarbamoyl)-4H-1,2,4-triazol-4-yl)benzyl)-N-methylpiperidine-4-carboxamido)propyl (2-(2,6-dioxopiperidin-3-yl)-1-oxoisoindolin-4-yl)carbamate] | 6.16 |

— patent US9956293B2, “Targeted therapeutics” (Madrigal Pharmaceuticals, Inc., priority 2014, dated 2018)
